Reference: patent US8506928B2, “Methods and compounds for targeting tissues” (The Regents of the University of California, priority 2007, dated 2013)
Residues, ends and D or L forms follow the SMILES beside them.

Columns and labels:
[1] = Pre-administration of RES inhibitors before CRPPR-3 liposomes; assay type: in vivo, mice; details: for decrease of accumulation within the heart: 90 minute time point, pre-administration before CRPPR-3 liposomes; for ratio of radioactivity in the heart with and without inhibitors: well counts at 90 minutes after CRPPR-3 liposome injection
Description: Blank liposomes: blank liposomes (DPPC:DSPE-PEG2000=98:2 (mol/mol), with diameter 100 nm) with 300 μg lipids (12 mg/kg) in 100 μl saline were injected 15 minutes before the radiolabeled targeted liposomes. Polyinosinic acid (PI): PI (P4154), purchased from Sigma-Aldrich, was dissolved in 0.9% sterile injection saline at 2 mg/ml. A small amount of sodium hydroxide solution was added to dissolve PI powder and the pH of the PI solution was adjusted to 7.4 with HCl solution. 5 μl of PI solution (˜10 μg of PI, 0.4 mg/kg) was diluted with 100 μl saline and injected 1 minute before the injection of the radiolabeled targeted liposomes. Control animals received an equal volume of saline solution. Clodronate liposomes: Clodronate liposomes were prepared as in [21]. 100 μl of clodronate liposomes (˜0.05 mg, 2 mg/kg) were injected 24 hours in advance of the administration of radiolabeled targeted liposomes. Control animals received an equal volume of saline solution. Free CRPPR Peptide (SEQ ID NO: 1): 700 μg of CRPPR peptides (SEQ ID NO: 1) (25 mg/kg) were injected 1 minute before the administration of radiolabeled targeted liposomes. Control animals received an equal volume of injection saline solution.

heart endothelium = details: described in [4]; cited from earlier work

Row | Compound | decrease of accumulation within the heart [1] [%] | ratio of radioactivity in the heart with and without inhibitors [1] | target-to-muscle ratio, phage targeting (heart endothelium)
1 | Polyinosinic acid [PI] | 41 | 0.59 | 
2 | NC(N)=NCCC[C@H](NC(=O)[C@@H]1CCCN1C(=O)[C@@H]1CCCN1C(=O)[C@H](CCCN=C(N)N)NC(=O)[C@@H](N)CS)C(=O)O [CRPPR] (H-CRPPR-OH) | ~19 | 0.81 | greater than 300 fold
